The record followed here is ChEMBL document CHEMBL4483862, “Open-source discovery of chemical leads for next-generation chemoprotective antimalarials” (2018).

Some results are limits rather than exact numbers.

This experiment has as its system Plasmodium berghei. The experiment in a line: Luciferase/luciferin-expressing antifolate-resistant parasites were used to infect a culture of HepG2 cells that were pre-incubated with compounds. Infected hepatocytes emit light due to the luciferase reaction. Assay results are presented as the percent inhibition of light emission compared to control. […]. The experiment is classed as functional. As to conditions: sporozoite; for IC90: read-out: LUCIFERASE INFECTION ASSAY - IC90.

Where [1] appears, read: read-out: LUCIFERASE INFECTION ASSAY - IC50.

Turning to `CSC(=NNc1ccc([N+](=O)[O-])cc1)NC(=O)c1c(Cl)cccc1Cl`, the IC90 was greater than 8.27 µM. The IC50 (PBLUC_HILL_SLOPE 1.5, PBLUC_R_SQUARED 0.194, read-out: LUCIFERASE INFECTION ASSAY - IC50) is 7.91 µM.

For the molecule `O=C(COc1ccccc1CSc1ccc(Cl)cc1)N/N=C/c1ccccc1Cl`, the IC90 was greater than 7.41 µM. Also, under setting [1], the IC50 is greater than 7.41 µM.

With `COc1ccc(Br)cc1-c1nc(CN2C(=O)NC(C)(c3ccccc3)C2=O)cs1` (stereo not drawn), the IC90 is 5.61 µM. For the same molecule, the IC50 (HEPG2TOX_HILL_SLOPE 2.19, HEPG2TOX_R_SQUARED 0.876, PBLUC_HILL_SLOPE 2.71, PBLUC_R_SQUARED 0.259, read-out: LUCIFERASE INFECTION ASSAY - IC50) came to 2.49 µM.

As for `Clc1ccc(-c2nnc(Sc3nc(-c4cccs4)ns3)[nH]2)cc1`, the IC90 was greater than 8.73 µM. Under setting [1], the IC50 was greater than 8.73 µM.

Regarding `O=C(OCCSc1ccc([N+](=O)[O-])c2nonc12)c1ccccc1`, the IC90 is greater than 9.56 µM. Besides, the IC50 (FFLUC_HILL_SLOPE 1.36, FFLUC_R_SQUARED 0.568, HEPG2TOX_HILL_SLOPE 2.89, HEPG2TOX_R_SQUARED 0.849, PBLUC_HILL_SLOPE 0.85, PBLUC_R_SQUARED 0.48, read-out: LUCIFERASE INFECTION ASSAY - IC50) was 5.19 µM.

`O=C1N(CN2CCCCC2)c2ccc(Br)cc2C12OCCO2`: the IC90 was greater than 8.99 µM. In addition, the IC50 under setting [1] was greater than 8.99 µM.

With `COc1ccc(CNC(=O)/C=C/c2csc(N(C(C)=O)c3cccc(C(F)(F)F)c3)n2)cc1`, the IC90 is greater than 10 µM. Moreover, the IC50 under setting [1] was greater than 10 µM.

On to `COc1ccc(-c2cc(-c3nnc4n3CCCCC4)c3c(C)nn(-c4ccccc4)c3n2)cc1`, for which the IC90 is greater than 10 µM. For the same molecule, under “PBLUC_HILL_SLOPE 3.73, PBLUC_R_SQUARED 0.529, read-out: LUCIFERASE INFECTION ASSAY - IC50”, the IC50 was 5.69 µM.

Turning to `Clc1ccc2c(c1)C(Nc1ccc3nnnn3n1)CCS2` (stereo not drawn), the IC90 is greater than 10 µM. In addition, under “HEPG2TOX_HILL_SLOPE 2.38, HEPG2TOX_R_SQUARED 0.171, read-out: LUCIFERASE INFECTION ASSAY - IC50”, the IC50 is greater than 10 µM.

In the case of `c1csc(-c2cn3c(-c4ccc5ncccc5c4)cnc3cn2)c1`, the IC90 is 8.95 µM. Besides, the IC50 (HEPG2TOX_HILL_SLOPE 2.44, HEPG2TOX_R_SQUARED 0.922, PBLUC_HILL_SLOPE 1.55, PBLUC_R_SQUARED 0.705, read-out: LUCIFERASE INFECTION ASSAY - IC50) came out at 2.17 µM.

Take `Cc1cc(NC(=O)C(C)n2nc(-c3cccs3)c3ccccc3c2=O)no1` (stereo not drawn): the IC90 is greater than 10 µM. Besides, the IC50 (HEPG2TOX_HILL_SLOPE 9.69, HEPG2TOX_R_SQUARED 0.542, read-out: LUCIFERASE INFECTION ASSAY - IC50) is greater than 10 µM.

As to `Cc1ccc(-c2nn(-c3ccccc3)cc2/C=N/Nc2ncnc(N)c2[N+](=O)[O-])o1`, the IC90 was determined as 1.28 µM. The IC50 (FFLUC_HILL_SLOPE 2.88, FFLUC_R_SQUARED 0.103, HEPG2TOX_HILL_SLOPE 0.791, HEPG2TOX_R_SQUARED 0.887, PBLUC_HILL_SLOPE 4.72, PBLUC_R_SQUARED 0.877, read-out: LUCIFERASE INFECTION ASSAY - IC50) came to 0.806 µM.

For `NC(Cc1ccc(F)cc1)c1csc(Nc2ncccn2)n1` (stereo not drawn), the IC90 is 4.09 µM. Also, where the note is “HEPG2TOX_HILL_SLOPE 5.82, HEPG2TOX_R_SQUARED 0.311, PBLUC_HILL_SLOPE 16.5, PBLUC_R_SQUARED 0.556, read-out: LUCIFERASE INFECTION ASSAY - IC50”, the IC50 was determined as 3.58 µM.

Consider `N#CC1(C#N)C2C=CC(C2)C1(C#N)C#N`, for which the IC90 was greater than 17 µM. Further, where the note is “PBLUC_HILL_SLOPE 1.54, PBLUC_R_SQUARED 0.0374, read-out: LUCIFERASE INFECTION ASSAY - IC50”, the IC50 is greater than 17 µM.

Consider `Cc1cc(-c2csc(NC(=O)CCc3nc4ccccc4[nH]3)n2)c(C)s1`, for which the IC90 is greater than 10 µM. Where the note is “PBLUC_HILL_SLOPE 3, PBLUC_R_SQUARED 0.654, read-out: LUCIFERASE INFECTION ASSAY - IC50”, the IC50 is 6.46 µM.

For the molecule `O=C1c2ccccc2C(=O)c2sccc21` [THIOPHENONAPHTHOQUINONE], the IC90 was greater than 15.4 µM. For the same molecule, the IC50 (PBLUC_HILL_SLOPE 0.947, PBLUC_R_SQUARED 0.583, read-out: LUCIFERASE INFECTION ASSAY - IC50) is 2.81 µM.

As for `COc1ccccc1NC1=C(Cl)C(=O)c2ccccc2C1=O`, the IC90 was found to be 8.17 µM. Under “FFLUC_HILL_SLOPE 2.43, FFLUC_R_SQUARED 0.19, HEPG2TOX_HILL_SLOPE 11.1, HEPG2TOX_R_SQUARED 0.994, PBLUC_HILL_SLOPE 1.56, PBLUC_R_SQUARED 0.76, read-out: LUCIFERASE INFECTION ASSAY - IC50”, the IC50 turned out to be 2 µM.

Regarding `Cc1nc(NCc2ccc(Cl)cc2)c2cc(-c3ccccc3)sc2n1`, the IC90 was greater than 10 µM. Also, for the setting “HEPG2TOX_HILL_SLOPE 0.0996, HEPG2TOX_R_SQUARED 0.0438, PBLUC_HILL_SLOPE 16.2, PBLUC_R_SQUARED 0.0193, read-out: LUCIFERASE INFECTION ASSAY - IC50”, the IC50 is 9.43 µM.

Regarding `CC(C(=O)NCc1ccco1)c1ccc2c(c1)[nH]c1ccc(Cl)cc12` (stereo not drawn), the IC90 was greater than 9.35 µM. The IC50 (PBLUC_HILL_SLOPE 15.7, PBLUC_R_SQUARED 0.128, read-out: LUCIFERASE INFECTION ASSAY - IC50) is greater than 9.35 µM.

For the molecule `Cn1ncc2c(N3CCN(CC(=O)Nc4nc(-c5c[nH]c6ccccc56)cs4)CC3)ncnc21`, the IC90 was determined as 4.22 µM. The IC50 (HEPG2TOX_HILL_SLOPE 3.32, HEPG2TOX_R_SQUARED 0.453, PBLUC_HILL_SLOPE 2.65, 8.86, PBLUC_R_SQUARED 0.123, 0.280, read-out: LUCIFERASE INFECTION ASSAY - IC50) was 2.62 µM.

On to `NC(Cc1ccc(F)cc1)c1csc(Nc2ccc(-c3ccccc3)nn2)n1` (stereo not drawn), for which the IC90 is greater than 8.43 µM. Moreover, the IC50 (PBLUC_HILL_SLOPE 14.8, PBLUC_R_SQUARED 0.059, read-out: LUCIFERASE INFECTION ASSAY - IC50) amounted to 8.32 µM.

Regarding `COc1ccccc1-c1cc(C(=O)NCC(C)c2ccccc2)no1` (stereo not drawn), the IC90 is greater than 10 µM. The IC50 (PBLUC_HILL_SLOPE 1.24, PBLUC_R_SQUARED 0.652, read-out: LUCIFERASE INFECTION ASSAY - IC50) came to 3.42 µM.

With `COc1c(Cl)cc(Cl)c(OC)c1C(=O)NC(=O)Nc1cc(C(F)(F)F)cc(C(F)(F)F)c1`, the IC90 was determined as 2.23 µM. Further, the IC50 under setting [1] turned out to be 2.06 µM.

In the case of `CC(C)N(C(=O)CSc1ccc(F)c(F)c1)c1ccc(Nc2ccccc2)cc1`, the IC90 was determined as 6.35 µM. Moreover, the IC50 (PBLUC_HILL_SLOPE 46.2, PBLUC_R_SQUARED 0.0491, read-out: LUCIFERASE INFECTION ASSAY - IC50) worked out at 6.06 µM.

In the case of `Cc1sc(NC(=O)Cc2coc3cc4c(cc23)CCC4)nc1-c1ccc(Cl)cc1`, the IC90 is greater than 10 µM. Further, the IC50 under setting [1] was greater than 10 µM.

`O=C(Oc1ccc(/C=N/n2cnnc2)cc1)c1ccco1`: the IC90 is greater than 10 µM. The IC50 (PBLUC_HILL_SLOPE 1.92, PBLUC_R_SQUARED 0.124, read-out: LUCIFERASE INFECTION ASSAY - IC50) is greater than 10 µM.

For the molecule `N#Cc1c(CCCNC(=O)/C=C/c2ccc(Cl)c(C(F)(F)F)c2)nn(-c2ccc(F)cc2)c1N`, the IC90 is greater than 10 µM. Also, the IC50 under setting [1] is greater than 10 µM.

Turning to `CCCCc1ccc(C(=O)Nc2nc3ccccn3c2C(=O)NCCCN2CCOCC2)cc1`, the IC90 is greater than 7.12 µM. Under “PBLUC_HILL_SLOPE 0.361, PBLUC_R_SQUARED 0.518, read-out: LUCIFERASE INFECTION ASSAY - IC50”, the IC50 stood at 2.21 µM.

With `CCOC(=O)c1c(S(=O)(=O)Nc2ccccc2Cl)c(-c2ccccc2)n(-c2ccccc2)c1C`, the IC90 is greater than 6.67 µM. Also, under setting [1], the IC50 was greater than 6.67 µM.

For the molecule `Cn1cc(-c2cnc3cnc(-c4ccccc4Oc4ccccc4)cn23)cn1`, the IC90 came out at 3.5 µM. Besides, the IC50 (PBLUC_HILL_SLOPE 18.2, PBLUC_R_SQUARED 0.499, read-out: LUCIFERASE INFECTION ASSAY - IC50) was 3.1 µM.

As to `OC1CCC(Nc2nn3c(-c4cccc(OC(F)(F)F)c4)cnc3s2)CC1` (stereo not drawn), the IC90 was greater than 8.28 µM. Further, the IC50 (FFLUC_HILL_SLOPE 6.8, FFLUC_R_SQUARED 0.0322, read-out: LUCIFERASE INFECTION ASSAY - IC50) is greater than 8.28 µM.

In the case of `Cc1nn(Cc2nnc(SCc3cccc(C(F)(F)F)c3)o2)c(C)c1Br`, the IC90 was greater than 7.38 µM. Also, the IC50 under setting [1] was greater than 7.38 µM.

Regarding `CC(C)(C)CN=C(C#N)C(C#N)/N=C/c1cccc(Cl)c1` (stereo not drawn), the IC90 is greater than 11 µM. For the same molecule, the IC50 under setting [1] is greater than 11 µM.

With `CC(=O)NCCCc1ccc(C(=O)COC(=O)c2cc(Cl)c[nH]2)cc1`, the concentration for an effect of 90% (IC90) is greater than 10 µM. In addition, for the setting “FFLUC_HILL_SLOPE 2.83, FFLUC_R_SQUARED 0.674, read-out: LUCIFERASE INFECTION ASSAY - IC50”, the IC50 is greater than 10 µM.

In the case of `CN(C)C(=O)N1CCCC(C(=O)Nc2nc(-c3c(F)cccc3F)cs2)C1` (stereo not drawn), the IC90 is greater than 10 µM. Where the note is “PBLUC_HILL_SLOPE 2.82, PBLUC_R_SQUARED 0.52, read-out: LUCIFERASE INFECTION ASSAY - IC50”, the IC50 was found to be 5.62 µM.

Consider `Cc1ccc(-c2nc(SCc3nc(=O)c4c(-c5ccccc5)csc4[nH]3)[nH]c2-c2ccc(C)cc2)cc1`, for which the IC90 was greater than 10 µM. Also, the IC50 (FFLUC_HILL_SLOPE 10.3, FFLUC_R_SQUARED 0.755, read-out: LUCIFERASE INFECTION ASSAY - IC50) was greater than 10 µM.

Consider `C=S(=O)(N/C=C1/C(=O)c2ccccc2N(C)S1(=O)=O)c1ccccc1` (stereo not drawn), for which the IC90 is greater than 8.77 µM. Also, the IC50 under setting [1] was greater than 8.77 µM.

Consider `Cc1nn(-c2ccccc2Cl)c2sc(C(=O)Nc3ccc(-c4nnc5n4CCCCC5)cc3)cc12`, for which the IC90 is greater than 10 µM. In addition, under setting [1], the IC50 is greater than 10 µM.

As to `Clc1nc2ccccc2cc1/C=N/C1CCCCC1`, the IC90 is greater than 10 µM. For the same molecule, the IC50 under setting [1] is greater than 10 µM.
